This note sets out measurements from patent publication US12398117B2, “Heteroarylamidopyridinol derivative and pharmaceutical composition comprising same as active ingredient for prevention or treatment of autoimmune disease” (INNOVO THERAPEUTICS INC., priority 2019, dated 2025).

Some results are limits rather than exact numbers.

In assay [1] the test system is adhesion of intestinal epithelial cells (HT-29) and monocytic cells (U937) induced by IL-6. Nature of the assay: Inhibition of IL-6-induced adhesion of monocytes and intestinal epithelial cells. The note with it: Homo sapiens, 3 h; test drug 1 μM; IL-6 10 ng/mL; HT-29/U937; read-out: inhibitory activity (%). Type of assay: cell-based, human. How it is done: (§1) The inhibitory activity test for intestinal epithelial cell-monocyte adhesion by IL-6 was performed using the same method as in the case of TNF-α. HT-29 cells were cultured in a 24-well plate at the density of 2×10^5 cells/cm^2, and the test drug was pretreated in a medium containing 1% FBS and 1% PS for 1 hour. Thereafter, 10 μg/mL of BCECF-AM was treated thereto and reacted at 37° C. for 30 minutes. U937 cells loaded with BCECF and IL-6 (10 ng/mL) were reacted with HT-29 cells previously treated with the test drug at 37° C. for 3 hours. Upon completion of the reaction, the medium was removed, and the culture flask was washed twice with PBS to remove non-adherent U937 cells. In the next step, the cells were lysed by treating with 0.1% Triton X-100 (0.1 M Tris) and reacted at room temperature for 30 minutes. Then, fluorescence was measured and quantified using a fluostar optima microplate reader (BMG Labtechnologies, Germany).

In assay [2] the test system is adhesion of intestinal epithelial cells (HT-29) and monocytic cells (U937) induced by TNF-α. Nature of the assay: Inhibition of TNF-α-induced adhesion of monocytes and intestinal epithelial cells. It is filed as cell-based, human. Conditions: Homo sapiens; for inhibition at 1 µM: test drug 1 μM, TNF-α 10 ng/mL, HT-29/U937, read-out: Inhibitory activity (%). As for the experimental part: as §1, with “HT-29 human colon cancer-derived” for “The inhibitory activity test for intestinal”, “cells and U937 human-derived monocytes were cultured in RPMI 1640 medium containing 10% FBS and 1% penicillin/streptomycin (PS) in a 37° C., 5% CO2 incubator. When” for “cell-monocyte adhesion by IL-6 was performed using”, “cells grew more than 80% of the bottom area of the culture flask, they were passaged at a ratio of 1:3 and used” for “same method as”, “this experiment.” for “the case of TNF-α.”, “TNF-α” for “IL-6”, “Germany) (Carvalho et al., 1996; Thapa et al., 2008).” for “Germany).”

The test system of assay [3] is TNBS-induced inflammatory bowel disease rat model. Nature of the assay: Oral efficacy in TNBS-induced inflammatory bowel disease rat model. Type of assay: in vivo, Sprague Dawley rats. How it is done:
Sprague Dawley rats aged 7-8 weeks were purchased from OrientBio (Korea), stabilized with general solid feed for 3 days, and then used in this experiment. Feed and water were freely supplied during the experiment period, and the temperature of the breeding room was maintained at 25±1° C. and the relative humidity at 50±10%. Lighting management was controlled in a 12-hour light-dark cycle by an automatic lighting controller.
After anesthetizing rats that had been fasted for 24 hours with diethyl ether, 0.8 mL of 5% TNBS diluted with 50v/v % ethanol was slowly injected into the lumen of the colon using a 1 mL syringe connected to a polyethylene catheter, and then, the rats were left standing for 60 seconds in an inverted position in order to prevent 5% TNBS from leaking into the anus. For the control group, only vehicle [50v/v % ethanol] was injected in the same manner as in the other groups (Thapa et al., 2008).
In order to investigate the effect of the drug, the drug was administered at a constant time every day for 5 days from the day after the TNBS treatment.
Changes in body weight of each rat were observed from the fasting stage to the TNBS administration and drug administration process using a digital mass meter.
The colon of the rat was extracted, and the tissue 5-6 cm away from the anus was cut into a length of 1 cm, and the weight of the tissue was measured.
The weighed rat tissues were fixed with 4% paraformaldehyde solution, and then transferred to 30% sucrose solution. When the tissues subside, they were taken out and cut into […] thick using a cryomicrotome (Microm HM 450, Thermo Fisher Scientific, Germany) and stored in a cryopreservation solution. After washing the tissue section with KPBS, the tissue section was attached to a slide glass, dried, and then stained with hematoxylin & Eosin and observed under a microscope.

The subject of assay [4] is DSS-induced chronic enteritis mouse model. Nature of the assay: Oral efficacy in DSS-induced chronic enteritis mouse model. Type of assay: in vivo, C57BL/6 mice. The note with it: chronic enteritis (DSS-water-DSS, total 35 days), mouse. How it is done:
C57BL/6 mice aged 7-8 weeks were purchased from OrientBio (Korea), stabilized with general solid feed for 7 days, and then used in this experiment. Feed and water were freely supplied during the experiment period, and the temperature of the breeding room was maintained at 25±1° C. and the relative humidity at 50±10%. Lighting management was controlled in a 12-hour light-dark cycle by an automatic lighting controller.
Enteritis was induced in mice by allowing them to freely ingest drinking water containing 2% DSS salt (M.W. 36,000˜50,000, MP Biomedicals, LLC, OH, USA). For the chronic enteritis model, DSS was administered using a schedule of DSS administration for the first 7 days, administration of normal drinking water for 14 days, repeated administration of DSS for 7 days from the 21st day, and administration of normal drinking water for 7 days. The drug was administered once a day, 6 days a week from the first day of DSS treatment (FIG. 2A). […] In order to measure the dose-dependent therapeutic effect of the drug in the acute enteritis model, DSS was administered for 5 days to induce enteritis, and then the drug was administered for 14 days to measure the degree of recovery and treatment of enteritis (FIG. 3A). The drug was administered orally once daily for […] at a fixed time.
Changes in body weight of each mouse were observed during the DSS and drug administration using a digital mass meter.
The colon of the mouse was extracted, and the length and weight from the anus to the cecum were measured.
Tissue staining was performed in the same manner as in the case of hematoxylin/eosin staining of the rat colon tissue, and scoring indexes of mucosal damage and recovery were applied in the same way.

[5] abbreviates: oral 1 mg/kg, 5 days, fixed-dose test (Table 6).
The mark [6] stands for this setting: 10 mg/kg, dose-dependence test (Table 7).

As for `Cc1nc(NC(=O)c2sc3cc(F)ccc3c2Cl)c(C)c(C)c1OCC(=O)Nc1ccccc1` [XI-07, 3-chloro-6-fluoro-N-(3,4,6-trimethyl-5-(2-oxo-2-(phenylamino)ethoxy)pyridin-2-yl)benzo[b]thiophene-2-carboxamide], the inhibition at 1 µM in assay [1] was 72.8%. In addition, in assay [2], the inhibition at 1 µM is 84.1%. In assay [3] (setting [5]), the “Body weight recovery rate (%)” value was 82.9% and the “Intestinal weight recovery rate (%)” value is 91.0%.
On to `Cc1nc(NC(=O)c2sc3cc(F)ccc3c2Cl)c(C)c(C)c1OC(=O)N1CCOCC1` [XI-17, 6-(3-chloro-6-fluorobenzo[b]thiophene-2-carboxamido)-2,4,5-trimethylpyridin-3-yl morpholine-4-carboxylate], for which the inhibition at 1 µM in assay [1] turned out to be 59.6%. The inhibition at 1 µM in assay [2] is at least 50%. Also, in assay [3] (setting [5]), the “Body weight recovery rate (%)” value was 60.2% and the “Intestinal weight recovery rate (%)” value was 79.8%.
Consider `Cc1nc(NC(=O)c2cc3cc(Br)ccc3[nH]2)c(C)c(C)c1O` [Compound X-07, 5-bromo-N-(5-hydroxy-3,4,6-trimethylpyridin-2-yl)-1H-indole-2-carboxamide], for which the inhibition at 1 µM stood at 80.3% in assay [1] and 88.9% in assay [2]. Further, the “Body weight recovery rate (%)” value in assay [3] (setting [5]) was 72.9%. Further, the “Intestinal weight recovery rate (%)” value in assay [3] (setting [5]) was determined as 94.9%.
For `Cc1nc(NC(=O)c2sc3cc(Cl)ccc3c2Cl)c(C)c(C)c1O` [Compound X-25, 3,6-dichloro-N-(5-hydroxy-3,4,6-trimethylpyridin-2-yl)benzo[b]thiophene-2-carboxamide], the inhibition at 1 µM in assay [1] amounted to 9%; in assay [2], 19.5%.
On to `Cc1nc(NC(=O)c2cc3cc(OC(F)(F)F)ccc3[nH]2)c(C)c(C)c1O` [Compound X-11, N-(5-hydroxy-3,4,6-trimethylpyridin-2-yl)-5-(trifluoromethoxy)-1H-indole-2-carboxamide], for which the inhibition at 1 µM turned out to be 24.2% in assay [1] and 32.8% in assay [2].
With `Cc1nc(NC(=O)c2cc3ccc(Br)cc3[nH]2)c(C)c(C)c1O` [Compound X-05, 6-bromo-N-(5-hydroxy-3,4,6-trimethylpyridin-2-yl)-1H-indole-2-carboxamide], the inhibition at 1 µM in assay [1] was found to be 3.4%; in assay [2], 7.5%.
As for `C[C@]12C=CC(=O)C=C1CC[C@H]1[C@@H]3C[C@@H](O)[C@](O)(C(=O)CO)[C@@]3(C)C[C@H](O)[C@@]12F` [Triamcinolone, reference compound], in assay [3] (setting [6]), the “Body weight recovery rate (%)” value amounted to 70.0% and the “Intestinal weight recovery rate (%)” value is on record as 84.5%.
As for `Cc1nc(NC(=O)c2oc3ccccc3c2C)c(C)c(C)c1O` [Compound X-19, N-(5-hydroxy-3,4,6-trimethylpyridin-2-yl)-3-methylbenzofuran-2-carboxamide], the inhibition at 1 µM in assay [1] was 18.7%; in assay [2], 25.1%.
As to `Cc1nc(NC(=O)c2cc3cc(Cl)ccc3o2)c(C)c(C)c1O` [Compound X-16, 5-chloro-N-(5-hydroxy-3,4,6-trimethylpyridin-2-yl)benzofuran-2-carboxamide], the inhibition at 1 µM in assay [1] was found to be 15.1%; in assay [2] it was 25.1%.
In the case of `COc1c(C)nc(NC(=O)c2sc3cc(F)ccc3c2Cl)c(C)c1C` [XI-01, 3-chloro-6-fluoro-N-(5-methoxy-3,4,6-trimethylpyridin-2-yl)benzo[b]thiophene-2-carboxamide], the inhibition at 1 µM in assay [1] came out at 4.7%; in assay [2] it was 9.3%.
Regarding `Cc1ccc2c(Cl)c(C(=O)Nc3nc(C)c(O)c(C)c3C)sc2c1` [Compound X-23, 3-chloro-N-(5-hydroxy-3,4,6-trimethylpyridin-2-yl)-6-methylbenzo[b]thiophene-2-carboxamide], the values for the inhibition at 1 µM in assay [1] and in assay [2] were 8.7% and 9.1%, respectively.
With `COc1cccc2cc(C(=O)Nc3nc(C)c(O)c(C)c3C)oc12` [Compound X-18, N-(5-hydroxy-3,4,6-trimethylpyridin-2-yl)-7-methoxybenzofuran-2-carboxamide], the inhibition at 1 µM in assay [1] was 48.8%; in assay [2], at least 50%.
As to `Cc1nc(NC(=O)c2sc3ccccc3c2Br)c(C)c(C)c1O` [Compound X-22, 3-bromo-N-(5-hydroxy-3,4,6-trimethylpyridin-2-yl)benzo[b]thiophene-2-carboxamide], the inhibition at 1 µM in assay [1] stood at 19.7%; in assay [2], 26.8%.
In the case of `Cc1nc(NC(=O)c2sc3cc(F)ccc3c2Cl)c(C)c(C)c1O` [Compound X-24, 3-chloro-6-fluoro-N-(5-hydroxy-3,4,6-trimethylpyridin-2-yl)benzo[b]thiophene-2-carboxamide], the IC50 (in general, the concentration needed to halve the response being measured) in assay [2] (inhibition of adhesion by TNF-α) was determined as 230 nM. The “Body weight recovery rate (%)” value in assay [4] (1 mg/kg) turned out to be 22.8%; in assay [4] (3 mg/kg), 73.3%; in assay [3] (setting [5]), 86.6%. Besides, the “Intestinal weight recovery rate (%)” value in assay [4] (1 mg/kg) is 58.1%; in assay [4] (3 mg/kg) it was 98.2%; in assay [3] (setting [5]), 97.4%.
As to `Cc1nc(NC(=O)c2sc3cc(F)ccc3c2Cl)c(C)c(C)c1OCC(=O)NC1CCCCC1` [XI-05, 3-chloro-N-(5-(2-(cyclohexylamino)-2-oxoethoxy)-3,4,6-trimethylpyridin-2-yl)-6-fluorobenzo[b]thiophene-2-carboxamide], the inhibition at 1 µM was determined as 14.5% in assay [1] and 25.5% in assay [2].
Taken in the same sequence, the figures for `Cc1nc(NC(=O)c2cc3cc(Cl)ccc3[nH]2)c(C)c(C)c1O` [Compound X-08, 5-chloro-N-(5-hydroxy-3,4,6-trimethylpyridin-2-yl)-1H-indole-2-carboxamide] were 21.3% and 31%.
